Experimental data: article PMC12030678, “Investigations of In Vitro Anti-Acetylcholinesterase, Anti-Diabetic, Anti-Inflammatory, and Anti-Cancer Efficacy of Garden Cress (Lepidium sativum Linn.) Seed Extracts, as Well as In Vivo Biochemical and Hematological Assays” (Pharmaceutics, 2025)
In brackets after ≈: the same amount, converted by molar mass.

Tests used:
α-amylase enzyme = target: T1, α-amylase enzyme (Sus scrofa, UniProt P00690); assay: α-Amylase inhibition (DNSA method); assay type: biochemical; conditions: at 100 µg/mL
T1 sequence (P00690 16-511): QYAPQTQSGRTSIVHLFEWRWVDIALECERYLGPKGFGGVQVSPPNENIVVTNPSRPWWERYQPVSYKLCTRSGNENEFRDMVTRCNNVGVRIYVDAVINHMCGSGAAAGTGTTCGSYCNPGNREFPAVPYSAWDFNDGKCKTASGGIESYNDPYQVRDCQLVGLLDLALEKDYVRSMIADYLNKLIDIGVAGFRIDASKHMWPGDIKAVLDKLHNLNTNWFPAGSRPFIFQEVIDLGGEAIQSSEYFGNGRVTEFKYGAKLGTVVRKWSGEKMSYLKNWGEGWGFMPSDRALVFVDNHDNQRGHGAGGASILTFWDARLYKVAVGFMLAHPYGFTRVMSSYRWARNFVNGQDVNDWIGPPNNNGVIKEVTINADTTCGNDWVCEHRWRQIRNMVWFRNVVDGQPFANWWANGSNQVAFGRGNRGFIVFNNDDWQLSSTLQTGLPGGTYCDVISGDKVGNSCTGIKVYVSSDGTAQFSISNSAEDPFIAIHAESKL
Description: Anti-Alzheimer's activity
In this study, we assessed the inhibition percentage of the acetylcholinesterase (AChE)
This assay involved calculating the inhibition percentage (%) of α-amylase enzyme using
The mixture was then left at
temperature and diluted with 5 mL of distilled water.

α-glucosidase enzyme = α-glucosidase enzyme (Saccharomyces cerevisiae, UniProt P53341); assay: α-Glucosidase inhibition (pNPG); assay type: biochemical; conditions: at 100 µg/mL
Chain of α-glucosidase enzyme (P53341 whole entry): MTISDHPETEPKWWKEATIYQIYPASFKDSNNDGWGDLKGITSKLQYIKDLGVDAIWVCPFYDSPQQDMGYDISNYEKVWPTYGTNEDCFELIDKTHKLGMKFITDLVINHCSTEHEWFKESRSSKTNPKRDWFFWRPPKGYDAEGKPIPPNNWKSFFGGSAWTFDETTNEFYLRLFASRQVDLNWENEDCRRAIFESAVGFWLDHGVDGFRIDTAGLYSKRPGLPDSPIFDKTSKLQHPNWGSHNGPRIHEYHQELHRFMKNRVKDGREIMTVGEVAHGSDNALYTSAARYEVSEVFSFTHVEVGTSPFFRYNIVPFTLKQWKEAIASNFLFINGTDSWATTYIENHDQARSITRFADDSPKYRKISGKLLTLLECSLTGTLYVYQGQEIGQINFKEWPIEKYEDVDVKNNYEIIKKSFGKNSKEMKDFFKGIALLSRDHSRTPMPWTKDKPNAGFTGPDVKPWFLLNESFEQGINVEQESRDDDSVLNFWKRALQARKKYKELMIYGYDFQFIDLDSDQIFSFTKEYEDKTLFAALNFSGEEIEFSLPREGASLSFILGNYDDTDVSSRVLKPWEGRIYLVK

[1] = Total antioxidant capacity (TAC), phosphomolybdenum method; conditions: in vitro total antioxidant capacity
Description: The total antioxidant capacity (TAC) was determined by analyzing the green phosphate/Mo5+
[38]. Samples (at each concentration) were mixed with a reagent solution containing 0.3 N
sulfuric acid, 28 mM sodium phosphate, and 4 mM ammonium molybdate. Methanol (80%)
was used in place of the sample for the blank. The tubes were sealed and incubated in a
boiling water bath for 90 minutes. After cooling to room temperature, the absorbance was
standard. The antioxidant capacity was expressed as mg gallic acid equivalent per gram

[2] = Iron reducing power (IRP); conditions: in vitro iron reducing power
Description: The iron reducing power was determined as µg/mL using the method proposed by Oyaizu
In brief, 1ml of the tested sample (at each concentration) was combined with
1mL of 200mM sodium phosphate buffer (pH 6.6) and 1mL of 1% potassium ferricyanide.
The mixture was then incubated at 50°C for 20 minutes, followed by the addition of 1mL of trichloroacetic acid (10%). After centrifugation at 2000rpm for 10 minutes, the upper layer solution (2.5 mL) was mixed with 2.5 mL of double deionized water and 1mL of fresh ferric chloride (0.1%). The absorbance was measured at 700nm against a blank prepared without the sample. Ascorbic acid was used at the same concentrations as a standard. A high absorbance at 700nm indicates a higher reducing power in the reaction mixture.

[3] = DPPH radical scavenging activity
Description: (§1) Antioxidant, scavenging, anti-Alzheimer, anti-diabetic, anti-arthritic, anti-inflammatory, cytotoxic, and enzymatic activities were assessed according to the proposed methods detailed in the Supplementary File. All biological activities were assessed in triplicate for all studied extracts. […]
The 1,1-Diphenyl-2-picryl-hydrazyl (DPPH) radical scavenging activities were evaluated using the method described by Rahman et al.. An antioxidant substance capable of donating a hydrogen atom to a solution containing DPPH- can reduce the stable free radical, causing the solution to change color from violet to pale yellow. The remaining DPPH- radical was quantified by measuring the intensity of a light-purple colored DPPH methanol solution in the visible range at 518 nm using a spectroscopic method. Two milliliters of a DPPH solution (100 µM) in ethanol were mixed with 2 mL of the sample (at each concentration).
The reaction mixture for each concentration was thoroughly vortexed and then incubated in the dark at room temperature for 30 minutes. The absorbance was then measured spectrophotometrically at 518 nm against a blank (ethanol). For the control, 2 mL of ethanol was added instead of the sample and run simultaneously with the test. Ascorbic acid was used at the same concentrations as a positive control. Percent inhibition of the DPPH free radical was calculated. […]

[4] = ABTS radical scavenging activity
Description: as §1
An antioxidant substance capable of donating a hydrogen atom to a solution containing DPPH- can reduce the stable free radical, causing the solution to change color from violet to pale yellow. […]
Two milliliters of a DPPH […]
solution (100 µM) in ethanol were mixed with 2 mL of the sample (at each concentration). […]
For the control, 2 mL of ethanol was added instead of the sample and run simultaneously with the test. Ascorbic acid was used at the same concentrations as a positive control. […]
(7 mM) and potassium persulfate solution (2.4 mM). The working solution was prepared by mixing the two stock solutions in equal quantities and allowing them to react at room temperature in a dark place for 14 hours. The solution was then diluted by mixing 1 mL of ABTS solution with 60 mL of methanol to obtain an absorbance of 0.706 ± 0.01 units at 734 nm using a spectrophotometer. […] The tested samples (at each concentration) were allowed to react with 1 mL of the ABTS solution, and the absorbance was taken at 734 nm after 7 minutes using a spectrophotometer. […]

[5] = Nitric oxide (NO) radical scavenging activity
Description: Antioxidant, scavenging, anti-Alzheimer, anti-diabetic, anti-arthritic, anti-inflammatory, cytotoxic, and enzymatic activities were assessed according to the proposed methods detailed in the Supplementary File. All biological activities were assessed in triplicate for all studied extracts.

Caco-2 cells = assay: Cytotoxic activity, MTT assay, Caco-2; assay type: cell-based; conditions: Homo sapiens, 48 h, read-out: IC50 (μg/mL) Caco-2
Description: as §1
Cytotoxic activity and Enzymatic Assay
It will be assayed against human hepatocellular carcinoma (HepG-2), colon cancer (Caco-2), and lung cancer (A549) cells using 3-(4,5-dimethythiazol-2-yl)-2,5-diphenyl tetrazolium bromide (MTT) assay by determining the optical density (OD) at 570 nm according to the […]
(§2) The cells were dispensed in a 96-well sterile […]
different concentrations of 10 μL of each compound or doxorubicin (positive control, in DMSO) for 48 h in a serum free medium prior to the MTT assay. Subsequently, the media were carefully removed, and 40 μL of MTT (2.5 mg/mL) was added to each well and then incubated for an additional 4 h. Purple formazan dye crystals were solubilized by the addition of 200 μL of DMSO. The absorbance was measured at 570 nm using a SpectraMax Paradigm Multi-Mode microplate reader. The relative cell viability was expressed as the mean percentage of viable cells relative to the untreated control cells. All experiments were conducted in triplicate. Percent of the cell-growth inhibition (%) and the IC50 was calculated using IC50 calculation software. […]

caspase-3 = assay type: cell-based, human
Description: as §1
(§3) Cytotoxic activity and Enzymatic Assay […]
as §2
(§4) different concentrations of 10 μL of each compound or doxorubicin (positive control, in DMSO) for 48 h in a serum free medium prior to the MTT assay. […]
Activities of caspase-3 were measured by enzyme-linked immunosorbent assay (ELISA) using the Invitrogen caspase-3 (Active) (human) ELISA kit (96 tests) from Invitrogen Corporation, following the manufacturer's instructions. […]

Bcl-2 = assay type: cell-based, human
Description: as §1, §3, §2, §4
Corporation, following the manufacturer's instructions. Activities of Bcl-2 were measured using the Invitrogen Zymed Bcl-2 ELISA Kit (96 tests) from Invitrogen Corporation, following the manufacturer's instructions.

[6] = target: T2, 5-LOX enzyme (human recombinant) (Homo sapiens, UniProt P09917); assay: 5-Lipoxygenase inhibition assay; assay type: biochemical; conditions: inhibition at 100 µg/mL
T2 construct: purchased Sigma-Aldrich 437996
T2 sequence (P09917 1-674): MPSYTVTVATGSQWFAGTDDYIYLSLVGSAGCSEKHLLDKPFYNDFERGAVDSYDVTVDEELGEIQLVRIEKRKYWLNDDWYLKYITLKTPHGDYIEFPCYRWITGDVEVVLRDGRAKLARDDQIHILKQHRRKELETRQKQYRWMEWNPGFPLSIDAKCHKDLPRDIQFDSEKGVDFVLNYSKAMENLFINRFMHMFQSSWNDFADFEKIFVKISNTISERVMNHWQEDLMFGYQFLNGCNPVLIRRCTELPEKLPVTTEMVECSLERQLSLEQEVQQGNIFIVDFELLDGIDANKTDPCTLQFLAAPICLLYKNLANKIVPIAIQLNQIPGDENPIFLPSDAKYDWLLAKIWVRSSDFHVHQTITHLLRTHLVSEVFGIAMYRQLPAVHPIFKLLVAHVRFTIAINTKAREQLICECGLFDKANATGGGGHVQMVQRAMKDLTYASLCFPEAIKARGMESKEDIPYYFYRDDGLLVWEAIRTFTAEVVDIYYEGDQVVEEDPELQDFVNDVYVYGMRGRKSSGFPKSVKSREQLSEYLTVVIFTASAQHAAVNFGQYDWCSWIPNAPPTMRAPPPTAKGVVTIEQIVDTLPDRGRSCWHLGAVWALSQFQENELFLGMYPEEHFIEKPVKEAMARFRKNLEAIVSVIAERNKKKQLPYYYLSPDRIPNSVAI
Description: different concentrations of 10 μL of each compound or doxorubicin (positive control, in DMSO) for 48 h in a serum free medium prior to the MTT assay. Subsequently, the media were carefully removed, and 40 μL of MTT (2.5 mg/mL) was added to each well and then incubated for an additional 4 h. […] The absorbance was measured at 570 nm using a SpectraMax Paradigm Multi-Mode microplate reader. The relative cell viability was expressed as the mean percentage of viable cells relative to the untreated control cells. […] Percent of the cell-growth inhibition (%) and the IC50 was calculated using IC50 calculation software.
Activities of caspase-3 were measured by enzyme-linked immunosorbent assay (ELISA) using the Invitrogen caspase-3 (Active) (human) ELISA kit (96 tests) from Invitrogen Corporation, following the manufacturer's instructions. Activities of Bcl-2 were measured using the Invitrogen Zymed Bcl-2 ELISA Kit (96 tests) from Invitrogen Corporation, following the manufacturer's instructions [52-54].

## C[C@H]1O[C@H](O[C@H]2[C@H](O)[C@@H](O)[C@@H](O[C@H]3[C@H](O)[C@@H](O)C(O)O[C@@H]3CO)O[C@@H]2CO)[C@H](O)[C@@H](O)[C@@H]1N[C@H]1C=C(CO)[C@@H](O)[C@H](O)[C@H]1O (stereo partly drawn) [Acarbose]
α-amylase enzyme
  α-Amylase Inhibition (%): 66.90 ± 0.10%
α-glucosidase enzyme
  α-Glucosidase Inhibition (%): 56.65 ± 0.10%

## O=C1O[C@H]([C@@H](O)CO)C(O)=C1O [Ascorbic Acid]
[1]
  TAC (mg Gallic Acid/g): 84.50 ± 0.13 mg Gallic Acid/g
[2]
  IRP: 76.75 ± 0.13 µg/mL
[3]
  IC50 (µg/mL) DPPH: 4.29 ± 0.03 µg/mL (≈ 24.4 µM)
[3]; at 100 µg/mL
  Inhibition (%) DPPH: 66.50 ± 0.11%
[4]
  IC50 (µg/mL) ABTS: 3.80 ± 0.04 µg/mL (≈ 21.6 µM)
[4]; at 100 µg/mL
  Inhibition (%) ABTS: 70.25 ± 0.11%
[5]
  IC50 (µg/mL) NO: 5.51 ± 0.02 µg/mL (≈ 31.3 µM)
[5]; at 100 µg/mL
  Inhibition (%) NO: 60.75 ± 0.11%

## COc1cccc2c1C(=O)c1c(O)c3c(c(O)c1C2=O)C[C@@](O)(C(=O)CO)C[C@@H]3O[C@H]1C[C@H](N)[C@H](O)[C@H](C)O1 [Doxorubicin]
Caco-2 cells
  IC50: 33.3 µg/mL (≈ 61.2 µM)
caspase-3; treated A549 cells, DMSO control 88.67 ± 0.12
  Caspase-3 (pg/mL) A549: 341.39 ± 0.46 pg/mL
caspase-3; treated Caco-2 cells, DMSO control 94.81 ± 0.14
  Caspase-3 (pg/mL) Caco-2: 365.02 ± 0.55 pg/mL
caspase-3; treated HepG-2 cells, DMSO control 108.79 ± 0.85
  Caspase-3 (pg/mL) HepG-2: 418.84 ± 3.27 pg/mL
Bcl-2; treated A549 cells, DMSO control 12.58 ± 0.05
  Bcl-2 (ng/mL) A549: 3.27 ± 0.01 ng/mL
Bcl-2; treated Caco-2 cells, DMSO control 5.74 ± 0.08
  Bcl-2 (ng/mL) Caco-2: 1.49 ± 0.02 ng/mL
Bcl-2; treated HepG-2 cells, DMSO control 11.15 ± 0.15
  Bcl-2 (ng/mL) HepG-2: 2.90 ± 0.04 ng/mL

## CC(c1cc2ccccc2s1)N(O)C(N)=O (stereo not drawn) [Zileuton]
[6]
  5-LOX (%): 55.71 ± 0.11 (Zileuton) %
